Test results as given in patent US11339128B2 (Firmenich Incorporated, priority 2014, dated 2022).

Molecular target: T1, T1R2/T1R3 taste receptor (Homo sapiens, UniProt Q7RTX0+Q8TE23)
T1 sequence (Q8TE23 20-839): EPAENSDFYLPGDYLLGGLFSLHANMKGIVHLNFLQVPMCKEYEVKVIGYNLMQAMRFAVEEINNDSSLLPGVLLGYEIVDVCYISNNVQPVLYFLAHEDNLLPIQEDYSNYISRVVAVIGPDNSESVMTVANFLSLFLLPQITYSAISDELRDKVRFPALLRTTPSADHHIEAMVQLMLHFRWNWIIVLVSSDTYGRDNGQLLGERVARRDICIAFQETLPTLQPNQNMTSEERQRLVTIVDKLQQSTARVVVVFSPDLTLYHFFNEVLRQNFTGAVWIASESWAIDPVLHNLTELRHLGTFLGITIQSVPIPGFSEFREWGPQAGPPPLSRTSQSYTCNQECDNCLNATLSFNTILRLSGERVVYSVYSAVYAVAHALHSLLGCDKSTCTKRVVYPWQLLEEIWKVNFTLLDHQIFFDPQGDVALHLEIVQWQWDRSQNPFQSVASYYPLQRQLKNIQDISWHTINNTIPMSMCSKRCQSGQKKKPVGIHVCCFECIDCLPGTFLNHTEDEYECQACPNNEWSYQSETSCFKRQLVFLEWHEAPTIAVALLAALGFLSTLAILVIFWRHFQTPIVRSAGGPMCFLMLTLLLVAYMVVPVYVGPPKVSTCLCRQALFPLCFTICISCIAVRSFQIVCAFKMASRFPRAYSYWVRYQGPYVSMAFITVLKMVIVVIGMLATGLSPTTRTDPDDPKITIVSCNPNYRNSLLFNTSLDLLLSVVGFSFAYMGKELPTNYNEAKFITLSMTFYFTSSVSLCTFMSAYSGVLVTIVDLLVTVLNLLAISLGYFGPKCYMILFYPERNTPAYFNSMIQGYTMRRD
T1 sequence (Q7RTX0 21-852): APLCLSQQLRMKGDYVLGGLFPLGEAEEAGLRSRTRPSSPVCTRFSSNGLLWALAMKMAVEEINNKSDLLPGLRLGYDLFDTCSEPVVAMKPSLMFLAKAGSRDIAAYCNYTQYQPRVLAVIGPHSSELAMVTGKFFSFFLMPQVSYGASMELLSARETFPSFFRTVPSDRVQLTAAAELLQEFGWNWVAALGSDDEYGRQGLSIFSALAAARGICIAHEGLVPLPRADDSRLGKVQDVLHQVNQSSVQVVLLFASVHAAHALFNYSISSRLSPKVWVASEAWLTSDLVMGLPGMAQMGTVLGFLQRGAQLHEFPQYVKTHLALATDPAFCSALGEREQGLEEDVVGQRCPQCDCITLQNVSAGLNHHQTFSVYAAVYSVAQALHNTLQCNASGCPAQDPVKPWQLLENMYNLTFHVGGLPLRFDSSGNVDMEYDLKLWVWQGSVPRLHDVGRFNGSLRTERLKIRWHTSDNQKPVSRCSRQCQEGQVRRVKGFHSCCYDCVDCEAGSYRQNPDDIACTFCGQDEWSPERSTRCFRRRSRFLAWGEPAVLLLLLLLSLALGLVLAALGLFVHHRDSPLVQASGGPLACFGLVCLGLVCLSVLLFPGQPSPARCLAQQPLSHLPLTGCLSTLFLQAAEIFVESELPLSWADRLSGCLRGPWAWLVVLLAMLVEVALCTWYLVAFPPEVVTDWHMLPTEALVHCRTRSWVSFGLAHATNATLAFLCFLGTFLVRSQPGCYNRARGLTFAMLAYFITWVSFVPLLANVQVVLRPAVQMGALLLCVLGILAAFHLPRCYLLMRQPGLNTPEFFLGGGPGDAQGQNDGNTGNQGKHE
Assay: Receptor-based assay: sweetener EC50 enhancement ratio with and without test compound
Type: cell-based
Details: for Sucrose Enhancement EC50 Ratio: sweetener sucrose; for Sucralose Enhancement EC50 Ratio: sweetener sucralose
Procedure: Potencies (EC50 values) for the sweeteners sucrose, sucralose, and fructose were measured against the T1R2/T1R3 taste receptor. EC50 was determined using the sweetener alone and in the presence of 1 μM, 3 μM, 10 μM, or 50 μM of test compound. EC50 ratios were calculated by the ratio of potency with and without the test compound. An “A” value indicates an enhancement ratio of greater than 1 and less than 10. A “B” value indicates an enhancement ratio from 10 to 20. A “C” value indicates an enhancement ratio greater than 20.

| SMILES | Sucrose Enhancement EC50 Ratio (1 μM test compound) | Sucrose Enhancement EC50 Ratio (3 μM test compound) | Sucrose Enhancement EC50 Ratio (10 μM test compound) | Sucralose Enhancement EC50 Ratio (10 μM test compound) | Sucralose Enhancement EC50 Ratio (3 μM test compound) |
| --- | --- | --- | --- | --- | --- |
| Cc1nc2cccc(O[C@H]3CC[C@@H](C)CC3)c2c(N)c1C(=O)O [Compound 102] | A (an enhancement ratio of greater than 1 and less than 10) | A (an enhancement ratio of greater than 1 and less than 10) | B (an enhancement ratio from 10 to 20) |  |  |
| Cc1nc2cccc(OC3CCC(C)(C)CC3)c2c(N)c1C(=O)O [Compound 103] | C (an enhancement ratio greater than 20) | C (an enhancement ratio greater than 20) |  |  |  |
| Cc1nc2cccc(O[C@H]3CC[C@H](C(C)(C)C)CC3)c2c(N)c1C(=O)O [Compound 104] | A (an enhancement ratio of greater than 1 and less than 10) | C (an enhancement ratio greater than 20) |  |  |  |
| CO[C@H]1CC[C@H](Oc2cccc3nc(C)c(C(=O)O)c(N)c23)CC1 [Compound 105] | A (an enhancement ratio of greater than 1 and less than 10) | A (an enhancement ratio of greater than 1 and less than 10) | C (an enhancement ratio greater than 20) |  |  |
| CO[C@H]1CC[C@@H](Oc2cccc3nc(C)c(C(=O)O)c(N)c23)CC1 [Compound 106] | A (an enhancement ratio of greater than 1 and less than 10) | A (an enhancement ratio of greater than 1 and less than 10) | A (an enhancement ratio of greater than 1 and less than 10) |  |  |
| Cc1nc2cccc(O[C@H]3CC[C@H](O)CC3)c2c(N)c1C(=O)O [Compound 107] | A (an enhancement ratio of greater than 1 and less than 10) | A (an enhancement ratio of greater than 1 and less than 10) | B (an enhancement ratio from 10 to 20) |  |  |
| Cc1nc2cccc(O[C@H]3CC[C@@H](O)CC3)c2c(N)c1C(=O)O [Compound 108] | A (an enhancement ratio of greater than 1 and less than 10) | A (an enhancement ratio of greater than 1 and less than 10) | A (an enhancement ratio of greater than 1 and less than 10) |  |  |
| Cc1nc2cccc(O[C@H]3CC[C@H](CO)CC3)c2c(N)c1C(=O)O [Compound 109] | B (an enhancement ratio from 10 to 20) | C (an enhancement ratio greater than 20) | C (an enhancement ratio greater than 20) |  |  |
| CCc1nc2cccc(OC3CCCCC3)c2c(N)c1C(=O)O [Compound 200] | A (an enhancement ratio of greater than 1 and less than 10) | A (an enhancement ratio of greater than 1 and less than 10) | A (an enhancement ratio of greater than 1 and less than 10) |  |  |
| CCc1nc2cccc(O[C@H]3CC[C@@H](C)CC3)c2c(N)c1C(=O)O [Compound 202] | A (an enhancement ratio of greater than 1 and less than 10) | A (an enhancement ratio of greater than 1 and less than 10) | A (an enhancement ratio of greater than 1 and less than 10) |  |  |
| CCc1nc2cccc(OC3CCC(C)(C)CC3)c2c(N)c1C(=O)O [Compound 203] | A (an enhancement ratio of greater than 1 and less than 10) | A (an enhancement ratio of greater than 1 and less than 10) | B (an enhancement ratio from 10 to 20) |  |  |
| CCc1nc2cccc(O[C@H]3CC[C@H](C(C)(C)C)CC3)c2c(N)c1C(=O)O [Compound 204] | A (an enhancement ratio of greater than 1 and less than 10) | A (an enhancement ratio of greater than 1 and less than 10) | A (an enhancement ratio of greater than 1 and less than 10) |  |  |
| CCc1nc2cccc(O[C@H]3CC[C@H](COC)CC3)c2c(N)c1C(=O)O [Compound 205] | A (an enhancement ratio of greater than 1 and less than 10) | B (an enhancement ratio from 10 to 20) | B (an enhancement ratio from 10 to 20) | B (an enhancement ratio from 10 to 20) |  |
| CCc1nc2cccc(O[C@H]3CC[C@H](CO)CC3)c2c(N)c1C(=O)O [Compound 206] | A (an enhancement ratio of greater than 1 and less than 10) | A (an enhancement ratio of greater than 1 and less than 10) | A (an enhancement ratio of greater than 1 and less than 10) |  |  |
| CCCc1nc2cccc(O[C@H]3CC[C@H](C)CC3)c2c(N)c1C(=O)O [Compound 207] | A (an enhancement ratio of greater than 1 and less than 10) | A (an enhancement ratio of greater than 1 and less than 10) | A (an enhancement ratio of greater than 1 and less than 10) |  |  |
| CCCc1nc2cccc(OC3CCC(C)(C)CC3)c2c(N)c1C(=O)O [Compound 208] | A (an enhancement ratio of greater than 1 and less than 10) | A (an enhancement ratio of greater than 1 and less than 10) | A (an enhancement ratio of greater than 1 and less than 10) |  |  |
| Cc1nc2cccc(O[C@H]3CC[C@H](NC(=O)COCC(C)(C)C)CC3)c2c(N)c1C(=O)O [Compound 301, 4-Amino-2-methyl-5-((trans-4-(2-(neopentyloxy)acetamido)cyclohexyl)oxy) quinoline-3-carboxylic acid] | B (an enhancement ratio from 10 to 20) | B (an enhancement ratio from 10 to 20) |  |  | B (an enhancement ratio from 10 to 20) |
| Cc1nc2cccc(O[C@H]3CC[C@H](N)CC3)c2c(N)c1C(=O)O.Cl [Compound 302, 4-Amino-5-((trans-4-aminocyclohexyl)oxy)-2-methylquinoline-3-carboxylic acid (HCl salt)] | A (an enhancement ratio of greater than 1 and less than 10) | A (an enhancement ratio of greater than 1 and less than 10) |  |  |  |
| Cc1nc2cccc(O[C@H]3CC[C@H](NC(=O)CO)CC3)c2c(N)c1C(=O)O [Compound 303] | A (an enhancement ratio of greater than 1 and less than 10) | A (an enhancement ratio of greater than 1 and less than 10) | B (an enhancement ratio from 10 to 20) | A (an enhancement ratio of greater than 1 and less than 10) |  |
